The nature of one data set: Solubility assays. Format: physicochemical. Here is the method:
Solubility assays were performed to determine the most compatible solvent for both peptides before in vitro evaluation of GPC3 binding, favoring aqueous solvents over cytotoxic organic solvents such as dimethylformamide (DMF) and dimethyl sulfoxide (DMSO).
FIG. 1. Cy5.5-conjugated TJ12P1 is peptide insoluble in aqueous buffer. Bright field images of Cy5.5-TJ12P1 peptides in solution. In (A, B), peptide Cy5.5-TJ12P1 is undissolved in 20% DMSO/80% ddH2O and 100% ddH2O at 0.3 mg/mL, respectively. DMSO, dimethyl sulfoxide.

The next data set concerns the target T1, human GPC3 (Homo sapiens, UniProt P51654).
T1 construct: biotin (biotinylated); purchased Acro Biosystems
The data set can be described thus: Biolayer interferometry to immobilized recombinant biotinylated GPC3. Format: binding. The note with it: unlabeled peptide, 1 × PBS with 0.02% Tween-20. Here is the method: (§1) Biotinylated human GPC3 protein (Acro Biosystems, Newark, DE) was diluted to 5 μg/mL in assay buffer (1 × PBS with 0.02% Tween-20) in a 96-well plate and loaded onto streptavidin biosensors (FortéBio, Menlo Park, CA). Each unconjugated peptide was diluted in assay buffer at four concentrations (1000, 500, 250, and 125 nM for TJ12P1; and 500, 250, 125, and 62.5 nM for KKK-L5) and loaded into the 96-well plate in a final volume of 200 μL. Specific and nonspecific binding wells were made for each concentration. The plate was run on an Octet Red96 system (FortéBio) and analyzed with FortéBio Octet Data Analysis software (v.11).
(In general: Biolayer interferometry detects binding as a change in optical thickness at a sensor tip.)

The subject of data set [1] is GPC3. Put plainly: Cell-based and cell-free GPC3 binding assays, overall result. Set-up: species or system human. The note with it: for specific binding (overall): concentrations in the range of their reported KD; for selectivity for GPC3 (overall): concentrations near the reported KD; for binding to GPC3 (overall): fluorescently labeled and unlabeled versions, concentrations in the range of their published KD (0.3–1 μM). Here is the method: (§2) Approximately 1 × 10^6 cells per sample tube were harvested, washed once with ice-cold staining buffer (1% bovine serum albumin in 1 × phosphate buffered saline [PBS]), and resuspended in 60 μL staining buffer. Cells were then distributed into control and experimental vials. Unstained and single-color control samples were made. Experimental samples were stained with PE-conjugated anti-GPC3 antibody (R&D Systems, Minneapolis, MN), PE-conjugated IgG2 isotype control (Biolegend, San Diego, CA), conjugated specific or nonspecific peptide and incubated for 1–2 h on ice in the dark. Data were collected using a BD FACSCalibur cytometer running BD CellQuest Pro software (v6.0), and results were analyzed with FlowJo (v10.4.2). All experiments represent biological replicates (n = 3).
as §1

The target in data set [2] is GPC3. The note with it: cited from earlier work. The source says:
Table 1. […] Several full-length antibodies, antibody fragments, and peptides for imaging and/or therapeutic use have been developed for GPC3 with varying degrees of success (Table 1).[8–17] […] To rule out the possibility that fluorophore modification of TJ12P1 interfered with its abil ... || (+ 2 further places)

The conditions of data set [3]: cited from earlier work. Here is the method:
Solubility assays were performed to determine the most compatible solvent for both peptides before in vitro evaluation of GPC3 binding, favoring aqueous solvents over cytotoxic organic solvents such as dimethylformamide (DMF) and dimethyl sulfoxide (DMSO). […] Sonication and vortexin ... || This study has a few limitations.

Data set [4] concerns the target Glypican 3 (Homo sapiens) (UniProt P51654). Put plainly: surface plasmon resonance. As to conditions: cited from earlier work. In general terms: SPR reads the build-up and loss of mass on a sensor chip optically.
Data set [5] can be described thus: Hydrophobic residue content.
Data set [6] concerns G1, HepG2, and A431 cells. The data set can be described thus: Flow cytometry, binding compared across A431, G1 and HepG2 cells. Format: cell-based, human. As to conditions: 1 h, n = 3. Here is the method:
(§3) A431, a human epidermoid carcinoma GPC3^− cell line, and A431-GPC3^+ (G1), a transfected A431 cell line engineered to stably express human GPC3, were both obtained from Dr. M.H. (National Cancer Institute, Bethesda, MD).[12] HepG2 (GPC3^+ liver cancer cell line) was obtained from ATCC (Manassas, VA). All cell lines were cultured in DMEM (Life Technologies, Carlsbad, CA) supplemented with 10% FetaPlex (Gemini Bio-Products, West Sacramento, CA) according to supplier's protocols. All cell lines tested negative for mycoplasma in monthly tests and were used for experiments within 10 passages (HepG2) or 15 passages (A431 and G1).
as §2
A general note: A flow cytometer gives signals particle by particle.

The subject of another data set is HepG2 cells. Put plainly: Flow cytometry, HepG2 (GPC3-positive) cells. Format: cell-based. As to conditions: 300 nM, 1 h, n = 3. Here is the method:
as §3
as §2, with “All experiments represent biological replicates (n = 3).” left out

Data set [7] has as its target Glypican 3 (Homo sapiens) (UniProt P51654). The note with it: cited from earlier work.

“Also recorded” adds a separate entry of the source. Like-named read-outs stand apart in the source and are kept apart here.

Here are results for eleven substances from publication PMC6802730, “In Vitro Performance of Published Glypican 3-Targeting Peptides TJ12P1 and L5 Indicates Lack of Specificity and Potency” (Cancer Biotherapy & Radiopharmaceuticals, 2019).

T1 sequence (P51654 25-580): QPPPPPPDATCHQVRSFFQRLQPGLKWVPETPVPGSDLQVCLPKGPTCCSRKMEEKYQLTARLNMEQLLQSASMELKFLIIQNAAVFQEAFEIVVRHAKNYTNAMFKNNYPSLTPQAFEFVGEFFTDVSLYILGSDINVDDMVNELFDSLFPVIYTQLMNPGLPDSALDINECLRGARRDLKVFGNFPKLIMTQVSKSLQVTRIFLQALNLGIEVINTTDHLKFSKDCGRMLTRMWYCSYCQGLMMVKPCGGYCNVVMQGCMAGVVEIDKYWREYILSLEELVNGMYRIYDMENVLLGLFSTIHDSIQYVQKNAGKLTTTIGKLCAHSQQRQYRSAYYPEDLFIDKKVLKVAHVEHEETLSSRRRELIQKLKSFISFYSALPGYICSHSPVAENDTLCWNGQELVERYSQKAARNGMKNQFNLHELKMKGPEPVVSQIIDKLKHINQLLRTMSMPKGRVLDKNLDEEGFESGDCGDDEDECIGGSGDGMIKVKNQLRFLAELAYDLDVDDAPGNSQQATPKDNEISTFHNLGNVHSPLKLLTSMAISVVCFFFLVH
Glypican 3 (Homo sapiens), sequence (P51654 359-554): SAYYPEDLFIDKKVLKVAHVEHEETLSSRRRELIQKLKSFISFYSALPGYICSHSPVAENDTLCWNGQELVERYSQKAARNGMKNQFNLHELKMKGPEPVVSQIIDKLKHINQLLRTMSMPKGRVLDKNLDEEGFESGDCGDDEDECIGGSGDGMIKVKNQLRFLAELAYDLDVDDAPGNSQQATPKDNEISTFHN

For DHLASLWWGTEL [TJ12P1], the solubility result in the data set “Solubility assays” (aqueous solution) is “poor solubility in aqueous solution”. The solubility result in “Solubility assays” (aqueous solution, record 2) is on record as “poor solubility in aqueous solutions”. For the same substance, on human GPC3 (125–1000 nM), the “KD by BLI” value is reported as “no KD could be calculated”. The “BLI concentration-dependent binding to GPC3” value at human GPC3 (125–1000 nM, recombinant biotinylated human GPC3 on streptavidin biosensors) is given as “failed to demonstrate concentration-dependent binding behavior”. Further, in the data set with GPC3 [1], the “specific binding (overall)” value is on record as “do not bind specifically”, the “selectivity for GPC3 (overall)” value is “neither TJ12P1 nor L5 variant demonstrates selectivity for GPC3” and the “binding to GPC3 (overall)” value is given as “neither fluorescently labeled nor unlabeled versions tested can bind to GPC3”. For the same substance, the Kd on GPC3 [2] (with Cy5.5, ref [9] (Zhu et al.)) is 390 nM.
With “KKK-RLNVGGTYFLTTRQ [KKK-L5, variant of the L5 peptide with three lysine residues]”, the solubility result in “Solubility assays” (ddH2O, 0.5 mg/mL) is listed as “soluble in ddH2O”. For the same substance, the “KD by BLI” value at human GPC3 (62.5–500 nM) was “no KD could be calculated”. For the same substance, the “BLI binding to GPC3” value on human GPC3 (62.5–500 nM, recombinant biotinylated human GPC3 on streptavidin biosensors) is listed as “absence of specific binding to GPC3; also recorded: failed to demonstrate concentration-dependent binding behavior”. Further, in the data set with GPC3 [1], the “specific binding (overall)” value is “do not bind specifically” and the “selectivity for GPC3 (overall)” value is reported as “neither TJ12P1 nor L5 variant demonstrates selectivity for GPC3”. The solubility entry in data set [3] (aqueous solution, compared to the original L5 peptide, ref [23] (Han et al.)) was “higher solubility in aqueous solution”.
In the case of L5, the Kd in data set [4] is 44.7 nM.
Consider “RLNVGGTYFLTTRQ [L5, previously published GPC3-targeting peptide; original L5 not evaluated in this study, reference compound]”, for which the solubility entry in “Solubility assays” (aqueous solution) is recorded as “poor solubility in aqueous solutions”; in [3] (original L5 peptide, as reported in literature), “poor solubility”. The “binding to GPC3 (overall)” value in the data set with GPC3 [1] is listed as “neither fluorescently labeled nor unlabeled versions tested can bind to GPC3”. Besides, the “hydrophobic residues, share of sequence” value in [5] (four out of the 14 residues) turned out to be 28.5%. Besides, the “hydrophobic residues, number” value in data set [5] (out of the 14 residues) was “Four”.
Take “Sulfo-Cy5-DHLASLWWGTEL [sulfo-Cy5-TJ12P1, sulfo-Cy5-labeled variant of TJ12P1]”: the solubility result in “Solubility assays” (0.15 M NH4OAc) is “appeared to be soluble”. Moreover, the “binding, G1 vs HepG2 vs A431” value in data set [6] (325 nM, flow cytometry) was “no significant difference in binding between G1, HepG2, and A431 cells; also recorded: nonspecific association of TJ12P1 to all cell lines”.
Turning to “Sulfo-Cy5-KKKRLNVGGTYFLTTRQ [sulfo-Cy5-KKK-L5, sulfo-Cy5-conjugated KKK-L5]”, the solubility result in the data set “Solubility assays” (ddH2O, 0.5 mg/mL) was “soluble in ddH2O”. Besides, the “binding, A431 vs HepG2 and G1 (histogram shift)” value in data set [6] (300 nM, flow cytometry) was “bound nonspecifically to GPC3, as the observed histogram shift is identical in the A431 (GPC3^−) and the HepG2 and G1 (GPC3^+) cells”.
On to “Sulfo-Cy5-KKKYTRFLGTVGNRLTQ [sulfo-Cy5-KKK-L5 scramble, sulfo-Cy5-labeled scrambled variant of KKK-L5]”, for which, in data set [6] (300 nM, all three cell lines, p < 0.05), the “binding (MFI) compared to specific peptide (sulfo-Cy5-KKK-L5)” value was “more binding; also recorded: binds better to all cell lines than the specific peptide”. The “difference in staining compared to sulfo-Cy5-KKK-L5” value is given as “statistically significant” with HepG2 cells (high-staining HepG2 population (Hi), p < 0.001) and “statistically significant” with HepG2 cells (low-staining HepG2 population (Lo), p < 0.005).
As for “Sulfo-Cy5-WLSHLGDLTWEA [sulfo-Cy5-TJ12P1 scrambled peptide, sulfo-Cy5-labeled scrambled variant of TJ12P1]”, the “binding compared to sulfo-Cy5-TJ12P1” value in data set [6] (325 nM, all GPC3+ cell lines (G1, HepG2), flow cytometry, p = 0.02) is on record as “significantly increased binding in all GPC3^+ cell lines”.
With TJ12P1, in [7], the Kd is 390 nM.
Turning to “WLSHLGDLTWEA [TJ12P1 scramble, scrambled variant of TJ12P1, nonspecific control]”, in data set [6] (325 nM, all cell lines tested, p < 0.05), the “binding (MFI) compared to specific peptide (sulfo-Cy5-TJ12P1)” value is reported as “more binding to all cell lines tested”.
Turning to “hGC33: published anti-GPC3 targeting moiety, humanized”, on GPC3 [2] (humanized: Yes, ref [16]), the Kd is 0.67 nM.

Broadly, the Kd is the equilibrium constant for the complex coming apart.
